Experimental data as given in US9518038B2, “Condensation product of theanine derivative and carboxylic acid coumarin derivative, its intermediate, preparation method and use thereof” (SHANDONG YINGDONG YINGHAO BIOTECHNOLOGY, INC., priority 2012, dated 2016).
pIC50: −log10 of the molar value. “And” between values parts separate entries of the source, which are not always exact repeats. Equal values may be shown once. Read-outs that look alike come from different tables or passages of the source. Each block holds one molecule with its values, some of them ahead of it.

How the values were obtained:
[1] = molecular target: T1, EZH2 (Homo sapiens, UniProt Q15910); assay: EZH2 enzyme activity in protein extracts of human tumor xenografts of treated mice (EZH2 Assay Kit); format: in vivo; details: tumors excised 6 h after medication, SAHA 25 mg/kg; for inhibition: read-out: decrease of EZH2 enzyme activity/inhibition rate
T1 construct: the EZH2 enzyme was replaced with tumor protein extracts in each group; from tissue; host or cells: human tumour xenografts excised from treated nude mice

[2] = molecular target: T2, EZH2 (Mus musculus, UniProt Q61188); assay: EZH2 enzyme activity in protein extracts of LLC tumors of treated mice (EZH2 Assay Kit); details: mouse; LLC tumor grown in vivo; tumors excised 6 h after medication; SAHA 25 mg/kg; read-out: decrease of EZH2 enzyme activity/inhibition rate
T2 construct: the EZH2 enzyme was replaced with tumor protein extracts in each group; from tissue; host or cells: Lewis lung cancer tumours from treated mice

[3] = tested on: human gastric cancer cells BGC-823; assay: MTT growth inhibition, BGC-823 cells; format: cell-based; details: 72 h after treatment, read-out: Drug concentration (IC50) at which 50% cancer cells survived
Excerpt: (§1) Cell lines and cell culture: human lung cancer cells A549 and H460, human breast cancer cells MCF-7 and MDA-MB-231, human gastric cancer cells BGC-823, human prostate cancer cells PC-3, human chronic leukemia cells K562, human lymphoma cells U937, human liver cancer cells SMMC7721 and HepG2, human colon cancer cells HT29, human pancreatic cancer cells PANC-1 and BxPC3, human cervical cancer Hela cell lines, human brain tumor cells Daoy, human neuroma cells D54 and human oral epidermoid cancer cells KBV200 line with strong drug resistance, mouse melanoma cells B16, and highly metastatic Lewis lung cancer cell lines were purchased from American Type Culture Collection of the U.S. These cells were cultured with DMEM and RPMI-1640 culture solutions separately.
(§2) The procedure was as follows:
(§3) (1) 0.25% trypsin was used to digest cancer cells in a logarithmic growth phase to prepare a single-cell suspension, the concentration of cells was adjusted to 5×10^4/mL, and the adjusted suspension was inoculated into a 96-well culture plate with 100 μl per well;
(§4) (2) The culture plate was transferred into a 37° C. incubator with a saturated humidity and 5% of CO2 and cultured for 24 h; the compounds and the intermediates thereof obtained in embodiments 1-7 and the compound as represented by formula (IIIa) or the positive control anti-cancer drug with the concentration of 1-1000 μM/L were added to enable the final concentration to be 0.1-1500 μM/L. Control wells (only added with 200 μl of cell suspension) and drug-free blank control wells (containing the solvent of 0.01% DMSO) were set, each group included 8 wells, and the plate was placed into the 37° C. incubator with saturated humidity and 5% of CO2 for culturing;
(§5) (3) The 96-well plate was taken out at 48 h and 72 h after dosing, the original culture medium was carefully removed by suction, 100 μl of serum-free DMEM culture medium and 10 μl of MTT (5 mg/mL) solution were added in each well. The plate was continuously cultured for another 4 h and then the culture was terminated;
(§6) (4) The supernatant in the wells was carefully removed by suction, each well was added with 150 μl of DMSO and shaked at room temperature for 10-15 min to fully dissolve crystals.
(§7) (5) Colorimetric analysis: the wavelength was selected as 570 nm, the light absorbance (A value) of each well was determined on the microplate reader and the results were recorded; the experiment was repeated for three times;
(§8) (6) the experimental results were calculated according to the following formula: relative survival rate=(A value of each experimental group/A value of cell control group)×100%
(§9) Calculation of median-effect concentration (IC50, namely the drug concentration at which the inhibition rate is 50%, also known as half inhibitory concentration):
(§10) IC50 of the detected component was calculated by using a regression equation.

[4] = tested on: human liver cancer cells HepG2; assay: MTT growth inhibition, HepG2 cells; format: cell-based; details: 72 h after treatment, read-out: Drug concentration (IC50) at which 50% cancer cells survived
Excerpt: as §1, §2, §3, §4, §5, §6, §7, §8, §9, §10

[5] = tested on: human pancreatic cancer cells PANC-1; assay: MTT growth inhibition, PANC-1 cells; format: cell-based; details: 72 h after treatment, read-out: Drug concentration (IC50) at which 50% cancer cells survived
Excerpt: as §1, §2, §3, §4, §5, §6, §7, §8, §9, §10

[6] = tested on: Caski human cervical cancer cells; assay: MTT growth inhibition, Caski cells; format: cell-based; details: Ca-Ski, 72 h after treatment, read-out: Drug concentration (IC50) at which 50% cancer cells survived
[7] = tested on: human lung cancer cells A549; assay: MTT growth inhibition, A549 cells; format: cell-based; details: 72 h after treatment, read-out: Drug concentration (IC50) at which 50% cancer cells survived
Excerpt: as §1, §2, §3, §4, §5, §6, §7, §8, §9, §10

[8] = tested on: human breast cancer cells MDA-MB-231; assay: MTT growth inhibition, MDA-MB-231 cells; format: cell-based; details: 72 h after treatment, read-out: Drug concentration (IC50) at which 50% cancer cells survived
Excerpt: as §1, §2, §3, §4, §5, §6, §7, §8, §9, §10

[9] = tested on: human brain tumor cells Daoy; assay: MTT growth inhibition, Daoy cells; format: cell-based; details: Homo sapiens, 72 h after treatment, read-out: Drug concentration (IC50) at which 50% cancer cells survived
Excerpt: as §1, §2, §3, §4, §5, §6, §7, §8, §9, §10

[10] = tested on: human lymphoma cells U937; assay: MTT growth inhibition, U937 cells; format: cell-based; details: Homo sapiens, U-937, 72 h after treatment, read-out: Drug concentration (IC50) at which 50% cancer cells survived
Description: as §2, §5, §6, §7, §8, §10

[11] = tested on: human colon cancer cells HT29; assay: MTT growth inhibition, HT29 cells; format: cell-based; details: HT-29, 72 h after treatment, read-out: Drug concentration (IC50) at which 50% cancer cells survived
Excerpt: as §1, §2, §3, §4, §5, §6, §7, §8, §9, §10

[12] = tested on: human pancreatic cancer cells BxPC3; assay: MTT growth inhibition, BxPc3 cells; format: cell-based; details: Homo sapiens, BXPC-3, 72 h after treatment, read-out: Drug concentration (IC50) at which 50% cancer cells survived
Excerpt: as §1, §2, §3, §4, §5, §6, §7, §8, §9, §10

[13] = tested on: mouse melanoma cells B16; assay: MTT growth inhibition, B16 cells; format: cell-based; details: Mus musculus, 72 h after treatment, read-out: Drug concentration (IC50) at which 50% cancer cells survived
Excerpt: as §1, §2, §3, §4, §5, §6, §7, §8, §9, §10

[14] = tested on: human neuroma cells D54; assay: MTT growth inhibition, D54 cells; format: cell-based; details: Homo sapiens, 72 h after treatment, read-out: Drug concentration (IC50) at which 50% cancer cells survived
Excerpt: as §1, §2, §3, §4, §5, §6, §7, §8, §9, §10

[15] = tested on: human liver cancer cells SMMC7721; assay: MTT growth inhibition, SMMC7721 cells; format: cell-based; details: SMMC-7721, S-7721 (SMMC7721), 72 h after treatment, read-out: Drug concentration (IC50) at which 50% cancer cells survived
Excerpt: as §1, §2, §3, §4, §5, §6, §7, §8, §9, §10

[16] = tested on: human oral epidermoid cancer cells KBV200; assay: MTT growth inhibition, KBV200 cells; format: cell-based; details: 72 h after treatment, read-out: Drug concentration (IC50) at which 50% cancer cells survived
Excerpt: as §1, §2, §3, §4, §5, §6, §7, §8, §9, §10

[17] = tested on: human breast cancer cells MCF-7; assay: MTT growth inhibition, MCF-7 cells; format: cell-based; details: MCF7, 72 h after treatment, read-out: Drug concentration (IC50) at which 50% cancer cells survived
Excerpt: as §1, §2, §3, §4, §5, §6, §7, §8, §9, §10

[18] = tested on: highly metastatic Lewis lung cancer cell lines; assay: MTT growth inhibition, LLC cells; format: cell-based, mouse; details: Mus musculus, Lewis lung carcinoma, 72 h after treatment, read-out: Drug concentration (IC50) at which 50% cancer cells survived
Excerpt: as §1, §2, §3, §4, §5, §6, §7, §8, §9, §10

[19] = tested on: human prostate cancer cells PC-3; assay: MTT growth inhibition, PC-3 cells; format: cell-based; details: 72 h after treatment, read-out: Drug concentration (IC50) at which 50% cancer cells survived
Excerpt: as §1, §2, §3, §4, §5, §6, §7, §8, §9, §10

[20] = tested on: human cervical cancer Hela cell lines; assay: MTT growth inhibition, Hela cells; format: cell-based; details: Homo sapiens, 72 h after treatment, read-out: Drug concentration (IC50) at which 50% cancer cells survived
Excerpt: as §1, §2, §3, §4, §5, §6, §7, §8, §9, §10

[21] = tested on: human lung cancer cells H460; assay: MTT growth inhibition, H460 cells; format: cell-based; details: NCI-H460, 72 h after treatment, read-out: Drug concentration (IC50) at which 50% cancer cells survived
Excerpt: as §1, §2, §3, §4, §5, §6, §7, §8, §9, §10

[22] = tested on: human chronic leukemia cells K562; assay: MTT growth inhibition, K562 cells; format: cell-based; details: 72 h after treatment, read-out: Drug concentration (IC50) at which 50% cancer cells survived
Excerpt: as §1, §2, §3, §4, §5, §6, §7, §8, §9, §10

T1 sequence (Q15910 whole entry): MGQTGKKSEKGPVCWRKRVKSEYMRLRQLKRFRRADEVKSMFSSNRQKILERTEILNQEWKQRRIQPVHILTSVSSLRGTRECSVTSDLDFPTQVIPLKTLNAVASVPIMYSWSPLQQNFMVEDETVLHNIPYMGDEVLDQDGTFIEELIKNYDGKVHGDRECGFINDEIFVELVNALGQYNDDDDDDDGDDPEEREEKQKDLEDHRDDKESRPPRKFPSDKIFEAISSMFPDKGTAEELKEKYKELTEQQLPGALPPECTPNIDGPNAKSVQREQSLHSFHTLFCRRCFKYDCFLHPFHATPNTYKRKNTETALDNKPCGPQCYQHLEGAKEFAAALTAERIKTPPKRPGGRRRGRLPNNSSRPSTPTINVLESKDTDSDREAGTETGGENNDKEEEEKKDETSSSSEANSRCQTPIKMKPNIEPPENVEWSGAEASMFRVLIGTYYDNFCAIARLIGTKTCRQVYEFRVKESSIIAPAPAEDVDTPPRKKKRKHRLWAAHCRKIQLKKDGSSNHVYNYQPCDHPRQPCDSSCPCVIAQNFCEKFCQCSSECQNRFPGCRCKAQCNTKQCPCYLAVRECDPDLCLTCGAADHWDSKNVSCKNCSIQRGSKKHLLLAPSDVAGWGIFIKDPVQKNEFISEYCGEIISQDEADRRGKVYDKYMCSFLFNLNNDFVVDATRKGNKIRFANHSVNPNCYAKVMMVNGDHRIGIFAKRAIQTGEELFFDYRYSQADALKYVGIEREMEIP
T1 sequence (O75530 whole entry partner): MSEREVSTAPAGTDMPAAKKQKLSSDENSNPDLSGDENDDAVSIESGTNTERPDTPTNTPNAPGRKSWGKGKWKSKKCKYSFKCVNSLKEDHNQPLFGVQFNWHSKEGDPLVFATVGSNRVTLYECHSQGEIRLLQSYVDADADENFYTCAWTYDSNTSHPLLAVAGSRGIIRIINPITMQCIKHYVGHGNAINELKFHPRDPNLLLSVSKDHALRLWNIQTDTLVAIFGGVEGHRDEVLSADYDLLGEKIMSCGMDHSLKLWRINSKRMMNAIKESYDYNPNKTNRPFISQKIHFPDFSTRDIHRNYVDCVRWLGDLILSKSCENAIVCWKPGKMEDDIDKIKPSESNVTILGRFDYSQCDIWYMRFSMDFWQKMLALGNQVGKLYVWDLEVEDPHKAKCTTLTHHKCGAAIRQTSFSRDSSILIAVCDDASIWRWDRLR
T1 sequence (Q15022 whole entry partner): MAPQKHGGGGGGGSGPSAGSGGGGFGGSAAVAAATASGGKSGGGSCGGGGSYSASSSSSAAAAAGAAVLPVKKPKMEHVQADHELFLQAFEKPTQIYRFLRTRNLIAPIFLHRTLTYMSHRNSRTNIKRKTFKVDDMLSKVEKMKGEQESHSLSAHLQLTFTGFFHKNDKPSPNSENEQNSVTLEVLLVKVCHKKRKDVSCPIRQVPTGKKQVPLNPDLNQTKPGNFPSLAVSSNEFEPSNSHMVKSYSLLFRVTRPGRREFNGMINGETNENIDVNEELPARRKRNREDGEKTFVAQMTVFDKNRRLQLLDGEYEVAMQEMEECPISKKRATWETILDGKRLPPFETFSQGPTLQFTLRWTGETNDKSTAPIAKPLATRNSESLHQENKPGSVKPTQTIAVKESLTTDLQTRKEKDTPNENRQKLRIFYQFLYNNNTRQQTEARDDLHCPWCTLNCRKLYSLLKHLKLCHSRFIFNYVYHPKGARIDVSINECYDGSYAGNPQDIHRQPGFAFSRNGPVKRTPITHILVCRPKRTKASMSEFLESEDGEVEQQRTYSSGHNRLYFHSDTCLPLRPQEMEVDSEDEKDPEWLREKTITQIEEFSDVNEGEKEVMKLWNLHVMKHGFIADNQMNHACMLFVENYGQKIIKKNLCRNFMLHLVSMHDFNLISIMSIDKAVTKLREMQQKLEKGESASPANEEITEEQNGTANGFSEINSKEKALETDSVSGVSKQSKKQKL
T2 sequence (Q61188 whole entry): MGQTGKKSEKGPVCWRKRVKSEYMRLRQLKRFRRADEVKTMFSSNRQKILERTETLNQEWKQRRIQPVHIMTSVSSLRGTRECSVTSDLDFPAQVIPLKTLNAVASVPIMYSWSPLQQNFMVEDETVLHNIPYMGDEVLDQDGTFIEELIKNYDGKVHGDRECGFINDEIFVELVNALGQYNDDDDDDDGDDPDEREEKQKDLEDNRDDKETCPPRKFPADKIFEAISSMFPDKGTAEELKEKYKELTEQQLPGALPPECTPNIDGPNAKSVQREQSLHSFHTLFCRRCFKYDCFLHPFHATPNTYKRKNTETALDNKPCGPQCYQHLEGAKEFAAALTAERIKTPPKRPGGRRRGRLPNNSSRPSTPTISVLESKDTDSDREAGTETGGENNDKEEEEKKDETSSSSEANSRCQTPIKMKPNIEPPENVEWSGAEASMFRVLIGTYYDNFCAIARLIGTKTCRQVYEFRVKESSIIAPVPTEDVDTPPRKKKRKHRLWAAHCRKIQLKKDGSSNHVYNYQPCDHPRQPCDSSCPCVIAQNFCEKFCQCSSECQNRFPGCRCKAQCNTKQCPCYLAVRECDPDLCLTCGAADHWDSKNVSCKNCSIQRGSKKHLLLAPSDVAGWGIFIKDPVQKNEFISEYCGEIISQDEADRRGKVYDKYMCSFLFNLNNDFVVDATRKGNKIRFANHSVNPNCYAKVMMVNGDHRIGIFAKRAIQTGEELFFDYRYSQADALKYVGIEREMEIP
T2 sequence (Q921E6 whole entry partner): as the sequence (O75530 whole entry partner) above
T2 sequence (Q80U70 whole entry partner): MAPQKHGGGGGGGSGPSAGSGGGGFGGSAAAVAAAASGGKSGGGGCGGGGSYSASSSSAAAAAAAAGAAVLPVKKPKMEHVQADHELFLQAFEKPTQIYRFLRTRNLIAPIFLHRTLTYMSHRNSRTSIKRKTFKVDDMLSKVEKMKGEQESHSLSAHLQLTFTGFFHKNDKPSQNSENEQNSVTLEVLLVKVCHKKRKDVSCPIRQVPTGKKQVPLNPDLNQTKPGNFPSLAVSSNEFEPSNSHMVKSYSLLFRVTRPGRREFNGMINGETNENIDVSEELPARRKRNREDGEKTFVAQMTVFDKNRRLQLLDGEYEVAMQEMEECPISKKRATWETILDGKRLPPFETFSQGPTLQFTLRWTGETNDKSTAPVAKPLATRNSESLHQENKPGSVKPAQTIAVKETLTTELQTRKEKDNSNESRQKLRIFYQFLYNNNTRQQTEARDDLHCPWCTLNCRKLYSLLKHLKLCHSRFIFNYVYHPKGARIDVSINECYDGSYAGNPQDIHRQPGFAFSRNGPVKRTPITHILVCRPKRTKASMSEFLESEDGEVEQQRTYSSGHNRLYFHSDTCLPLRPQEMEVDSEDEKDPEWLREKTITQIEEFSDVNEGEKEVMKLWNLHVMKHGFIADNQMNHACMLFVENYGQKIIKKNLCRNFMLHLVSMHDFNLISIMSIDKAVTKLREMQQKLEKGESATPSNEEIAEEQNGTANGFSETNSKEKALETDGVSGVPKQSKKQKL

inhibition ([1]; A549, A549 tumor grown in vivo): 52%
decrease of EZH2 enzyme activity/inhibition rate ([1]; A549 tumor grown in vivo): 53%*(A549)-
inhibition ([1]; MCF7, MCF7 tumor grown in vivo): 52%
decrease of EZH2 enzyme activity/inhibition rate ([1]; MCF7 tumor grown in vivo): 53%*(MCF7)
decrease of EZH2 enzyme activity/inhibition rate ([1]; MDA-MB231 tumor grown in vivo): 55%*(MDA-MB231)
inhibition ([1]; MDA-MB-231, MDA-MB231 tumor grown in vivo): 54%
decrease of EZH2 enzyme activity/inhibition rate ([1]; SMMC7721 tumor grown in vivo): 49%*(SMMC-7721); and 49%*(SMMC7721);
inhibition ([1]; SMMC-7721, SMMC7721 tumor grown in vivo): 48%
inhibition [2]: 50%
Structure (SMILES): O=C(CCCCCCC(=O)Nc1ccccc1)NO [SAHA, suberoylanilide hydroxamic acid, reference compound]

Structure (SMILES): O=C(O)c1cc2cc(Br)cc(Br)c2oc1=O [Compound IIIh, 6,8-dibromo-coumarin-3-carboxylic acid]
pIC50 [3]: 3.32
pIC50 [4]: 3.84
pIC50 [5]: 3.32
pIC50 [6]: 3.87
pIC50 [7]: 3.35
pIC50 [8]: 3.38
pIC50 [9]: 3.46
pIC50 [10]: 3.41
pIC50 [11]: 3.23
pIC50 [12]: 3.40
pIC50 [13]: 3.34
pIC50 [14]: 3.52
pIC50 [15]: 3.28
pIC50 [16]: 3.52
pIC50 [17]: 3.35
pIC50 [18]: 3.46
pIC50 [19]: 3.39
pIC50 [20]: 3.54
pIC50 [21]: 3.26
pIC50 [22]: 3.32
